This assay has as its target cannabinoid receptor type 2 (CB2) (Homo sapiens, UniProt P34972). As to the kind of experiment: radioligand saturation binding.

Sequence of cannabinoid receptor type 2 (CB2) (P34972 whole entry): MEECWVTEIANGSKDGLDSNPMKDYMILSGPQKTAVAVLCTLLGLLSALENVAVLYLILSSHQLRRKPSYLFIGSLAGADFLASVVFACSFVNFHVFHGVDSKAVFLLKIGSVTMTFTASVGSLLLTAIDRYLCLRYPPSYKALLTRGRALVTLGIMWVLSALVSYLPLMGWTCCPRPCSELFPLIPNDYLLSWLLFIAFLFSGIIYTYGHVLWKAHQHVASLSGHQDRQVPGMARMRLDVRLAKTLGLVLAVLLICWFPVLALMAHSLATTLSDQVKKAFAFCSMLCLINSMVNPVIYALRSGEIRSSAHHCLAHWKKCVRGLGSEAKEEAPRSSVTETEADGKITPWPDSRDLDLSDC

The Kd is the concentration at which binding is half-saturated. The compound `CCCCOc1c(OC)ccc2cc(C(=O)NCc3ccc(F)cc3)c(=O)[nH]c12` [[18F]-14, 7-methoxy-8-butoxy-2-oxo-1,2-dihydroquinoline-3-carboxylic acid-(4-fluorobenzyl)amide] registered an equilibrium dissociation constant (Kd) of 3.4 nM.

The record behind these values is article PMC3324652 (2012).
